Activity calls are given as the source filed them. The calls are words filed in the database; no cut-off is given here.
Tests used:
[1] = target: Epidermal growth factor receptor (Homo sapiens, UniProt P00533, L858R/T790M); experiment: Inhibition of EGFR T790M/L858R mutant (unknown origin)
[2] = target: Epidermal growth factor receptor (Homo sapiens, UniProt P00533, C797S/L858R/T790M); experiment: Inhibition of EGFR C797S/T790M/L858R mutant (unknown origin)
[3] = test system: NCI-H1975; experiment: Inhibition of colony formation in human NCI-H1975 cells at 5 to 10 nM by crystal violet staining based analysis; format: functional, cell-based; conditions: dose 5-10 nM
[4] = test system: BaF3; experiment: Inhibition of colony formation in mouse BaF3 cells harboring EGFR L858R/T790M/C797S mutant at 5 to 10 nM by crystal violet staining based analysis; format: functional, cell-based; conditions: dose 5-10 nM
[5] = test system: NCI-H1975; experiment: Induction of apoptosis in human NCI-H1975 cells assessed as viable cells at 10 nM incubated for 24 hrs by Annexin V-FITC/PI staining based flow cytometry (reference value: 91.38 %); format: functional; conditions: read-out: Activity
[6] = test system: NCI-H1975; experiment: Induction of apoptosis in human NCI-H1975 cells assessed as necrotic cells at 10 nM incubated for 24 hrs by Annexin V-FITC/PI staining based flow cytometry (reference value: 2.89 %); format: functional
[7] = test system: BaF3; experiment: Induction of apoptosis in mouse BaF3 cells harboring EGFR L858R/T790M/C797S mutant assessed as late apoptotic cells at 10 nM incubated for 24 hrs by Annexin V-FITC/PI staining based flow cytometry (reference value: 0.02 %); format: functional
[8] = test system: BaF3; experiment: Induction of apoptosis in mouse BaF3 cells harboring EGFR L858R/T790M/C797S mutant assessed as necrotic cells at 10 nM incubated for 24 hrs by Annexin V-FITC/PI staining based flow cytometry (reference value: 0.06 %); format: functional
[9] = test system: NCI-H1975; experiment: Inhibition of cell migration in human NCI-H1975 cells by transwell assay; format: functional, cell-based
[10] = test system: BaF3; experiment: Inhibition of cell invasion in mouse BaF3 cells harboring EGFR L858R/T790M/C797S mutant by transwell assay; format: functional, cell-based
[11] = test system: BaF3; experiment: Antitumor activity against mouse BaF3 cells allografted in nude mouse assessed as reduction of tumor volume at 50 mg/kg, po measured after 2 to 7 days; format: functional, organism-based; conditions: time 2-7 day
[12] = test system: BaF3; experiment: Antitumor activity against mouse BaF3 cells allografted in nude mouse assessed as reduction of tumor weight at 50 mg/kg, po measured for 7 days; format: functional, organism-based; conditions: time 7.0 day
[13] = Toxicity in nude mouse allografted with mouse BaF3 cells assessed as animal abnormality at 50 mg/kg, po measured for 7 days; format: organism-based; conditions: in vivo, 168 h, time 7 day
[14] = test system: NCI-H1975; experiment: Antitumor activity against human NCI-H1975 cells xenografted in nude mouse at 50 mg/kg, po measured for 7 days relative to control; format: functional; conditions: NCI-H1975, 168 h, time 7 day, read-out: TGI
[15] = test system: BaF3; experiment: Inhibition of EGFR L858R/T790M/C797S mutant in mouse BaF3 cells assessed as reduction in ERK phosphorylation incubated for 24 hrs by Western blot analysis; format: cell-based; conditions: dose <= 100.0 nM
[16] = target: Epidermal growth factor receptor (Homo sapiens, UniProt P00533); experiment: Inhibition of EGFR in human NCI-H1975 cells assessed as reduction in AKT phosphorylation incubated for 24 hrs by Western blot analysis; format: cell-based; conditions: dose <= 50.0 nM
[17] = Cytotoxicity against human L02 cells; format: toxicity, cell-based
[18] = Cytotoxicity against human HK-2 cells; format: toxicity, cell-based
[19] = Cytotoxicity against human HaCaT cells; format: toxicity, cell-based
[20] = Toxicity in nude mouse allografted with mouse BaF3 cells assessed as damage in liver at 50 mg/kg, po for 7 days by H and E staining based analysis; format: organism-based; conditions: in vivo, 168 h, time 7 day
[21] = Toxicity in nude mouse allografted with mouse BaF3 cells assessed as lesion in liver at 50 mg/kg, po for 7 days by H and E staining based analysis; format: organism-based; conditions: in vivo, 168 h, time 7 day
[22] = Toxicity in nude mouse allografted with mouse BaF3 cells assessed as lesion in lung at 50 mg/kg, po for 7 days by H and E staining based analysis; format: organism-based; conditions: in vivo, 168 h, time 7 day
[23] = target: Platelet-derived growth factor receptor beta (Homo sapiens) (UniProt P09619); experiment: Binding affinity to PDGFR (unknown origin) at 100 nM by kinase profiling analysis
Sequence of Platelet-derived growth factor receptor beta (Homo sapiens) (P09619 whole entry): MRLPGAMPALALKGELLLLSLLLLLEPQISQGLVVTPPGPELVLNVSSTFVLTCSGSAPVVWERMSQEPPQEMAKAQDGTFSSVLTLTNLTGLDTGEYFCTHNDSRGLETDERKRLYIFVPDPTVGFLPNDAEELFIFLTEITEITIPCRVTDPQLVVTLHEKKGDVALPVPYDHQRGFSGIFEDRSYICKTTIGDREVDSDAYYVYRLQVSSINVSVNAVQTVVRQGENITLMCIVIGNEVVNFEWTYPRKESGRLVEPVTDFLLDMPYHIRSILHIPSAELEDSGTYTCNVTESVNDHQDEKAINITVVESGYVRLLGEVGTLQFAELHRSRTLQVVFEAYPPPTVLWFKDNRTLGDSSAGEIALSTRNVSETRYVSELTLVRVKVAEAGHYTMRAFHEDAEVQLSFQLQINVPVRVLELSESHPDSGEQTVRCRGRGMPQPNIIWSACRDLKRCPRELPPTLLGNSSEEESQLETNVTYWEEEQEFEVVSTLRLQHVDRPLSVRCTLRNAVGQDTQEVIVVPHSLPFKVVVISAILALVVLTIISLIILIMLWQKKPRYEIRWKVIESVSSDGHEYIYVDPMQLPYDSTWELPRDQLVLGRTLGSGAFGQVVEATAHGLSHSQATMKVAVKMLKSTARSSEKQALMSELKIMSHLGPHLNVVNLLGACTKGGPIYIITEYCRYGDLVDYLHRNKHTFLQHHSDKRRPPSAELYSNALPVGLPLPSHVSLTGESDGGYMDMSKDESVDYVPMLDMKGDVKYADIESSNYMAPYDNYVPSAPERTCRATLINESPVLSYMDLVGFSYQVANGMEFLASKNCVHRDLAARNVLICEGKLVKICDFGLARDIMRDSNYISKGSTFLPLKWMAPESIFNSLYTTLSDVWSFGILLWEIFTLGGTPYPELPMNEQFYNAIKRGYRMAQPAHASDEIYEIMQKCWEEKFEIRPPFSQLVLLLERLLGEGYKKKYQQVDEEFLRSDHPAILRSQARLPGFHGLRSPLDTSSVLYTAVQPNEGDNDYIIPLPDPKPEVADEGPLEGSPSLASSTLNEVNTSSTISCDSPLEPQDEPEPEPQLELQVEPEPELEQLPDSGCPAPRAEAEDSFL

Sequence of Epidermal growth factor receptor (Homo sapiens, UniProt P00533, C797S/L858R/T790M) (P00533 25-1210 T790M/C797S/L858R limits assumed): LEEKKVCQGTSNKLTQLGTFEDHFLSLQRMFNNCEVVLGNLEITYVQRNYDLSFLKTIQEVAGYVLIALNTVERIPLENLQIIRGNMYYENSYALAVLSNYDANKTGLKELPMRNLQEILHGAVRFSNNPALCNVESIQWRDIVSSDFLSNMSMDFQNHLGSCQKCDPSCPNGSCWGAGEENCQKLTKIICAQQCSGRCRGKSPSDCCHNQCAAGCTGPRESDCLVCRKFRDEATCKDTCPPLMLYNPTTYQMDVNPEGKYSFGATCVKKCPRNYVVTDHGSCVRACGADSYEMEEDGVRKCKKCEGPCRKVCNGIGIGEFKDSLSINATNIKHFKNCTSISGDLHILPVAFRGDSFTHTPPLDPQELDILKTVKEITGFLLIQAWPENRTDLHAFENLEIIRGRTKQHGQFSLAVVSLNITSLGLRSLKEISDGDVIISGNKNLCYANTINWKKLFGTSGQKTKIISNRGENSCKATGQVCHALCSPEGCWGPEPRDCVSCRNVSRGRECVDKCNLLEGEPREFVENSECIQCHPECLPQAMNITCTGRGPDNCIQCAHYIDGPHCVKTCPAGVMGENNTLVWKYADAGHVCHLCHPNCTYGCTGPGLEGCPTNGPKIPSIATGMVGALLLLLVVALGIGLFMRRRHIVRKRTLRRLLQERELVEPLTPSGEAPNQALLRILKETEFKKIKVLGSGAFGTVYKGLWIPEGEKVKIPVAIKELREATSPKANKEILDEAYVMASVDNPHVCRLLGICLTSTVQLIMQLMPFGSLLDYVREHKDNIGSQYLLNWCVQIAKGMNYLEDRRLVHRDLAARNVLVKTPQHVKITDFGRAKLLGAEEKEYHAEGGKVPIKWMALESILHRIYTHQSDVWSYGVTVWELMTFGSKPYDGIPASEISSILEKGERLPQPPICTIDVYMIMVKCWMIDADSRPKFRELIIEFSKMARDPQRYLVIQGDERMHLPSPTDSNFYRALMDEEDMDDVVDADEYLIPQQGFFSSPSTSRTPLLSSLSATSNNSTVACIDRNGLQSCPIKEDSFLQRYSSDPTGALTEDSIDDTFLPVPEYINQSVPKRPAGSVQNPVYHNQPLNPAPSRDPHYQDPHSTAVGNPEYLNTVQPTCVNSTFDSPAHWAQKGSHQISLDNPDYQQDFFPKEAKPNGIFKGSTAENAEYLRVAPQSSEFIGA
Sequence of Epidermal growth factor receptor (Homo sapiens, UniProt P00533, L858R/T790M) (P00533 25-1210 T790M/L858R limits assumed): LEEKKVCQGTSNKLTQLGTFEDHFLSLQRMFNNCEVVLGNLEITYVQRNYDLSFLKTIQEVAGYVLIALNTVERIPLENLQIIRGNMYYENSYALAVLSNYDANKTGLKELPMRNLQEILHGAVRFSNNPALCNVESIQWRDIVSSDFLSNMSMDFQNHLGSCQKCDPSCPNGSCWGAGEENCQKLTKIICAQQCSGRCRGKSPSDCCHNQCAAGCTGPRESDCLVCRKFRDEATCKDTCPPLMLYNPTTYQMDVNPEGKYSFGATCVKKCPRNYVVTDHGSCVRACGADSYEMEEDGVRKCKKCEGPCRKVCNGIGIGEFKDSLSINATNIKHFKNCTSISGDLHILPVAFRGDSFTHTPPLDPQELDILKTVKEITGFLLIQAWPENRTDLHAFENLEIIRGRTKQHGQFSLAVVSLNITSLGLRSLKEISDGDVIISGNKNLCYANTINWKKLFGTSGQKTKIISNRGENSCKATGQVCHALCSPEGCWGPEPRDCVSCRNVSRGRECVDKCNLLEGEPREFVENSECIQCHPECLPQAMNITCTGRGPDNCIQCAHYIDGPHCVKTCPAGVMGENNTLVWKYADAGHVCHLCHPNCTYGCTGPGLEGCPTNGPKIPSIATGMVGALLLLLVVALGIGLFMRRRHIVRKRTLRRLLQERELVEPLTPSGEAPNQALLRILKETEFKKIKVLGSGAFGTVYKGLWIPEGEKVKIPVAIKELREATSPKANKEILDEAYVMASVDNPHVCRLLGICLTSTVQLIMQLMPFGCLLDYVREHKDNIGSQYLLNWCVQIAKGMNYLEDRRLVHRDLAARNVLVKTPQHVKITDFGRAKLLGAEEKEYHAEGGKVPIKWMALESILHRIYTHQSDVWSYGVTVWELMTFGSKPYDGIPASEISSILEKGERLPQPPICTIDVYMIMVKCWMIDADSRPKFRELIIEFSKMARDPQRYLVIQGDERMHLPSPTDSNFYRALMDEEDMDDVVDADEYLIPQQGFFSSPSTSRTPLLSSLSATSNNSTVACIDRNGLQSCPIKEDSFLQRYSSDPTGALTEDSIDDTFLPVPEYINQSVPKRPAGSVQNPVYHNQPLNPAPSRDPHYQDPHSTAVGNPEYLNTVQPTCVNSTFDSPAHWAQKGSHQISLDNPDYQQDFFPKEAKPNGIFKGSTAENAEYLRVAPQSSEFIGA
Sequence of Epidermal growth factor receptor (Homo sapiens, UniProt P00533) (P00533 whole entry): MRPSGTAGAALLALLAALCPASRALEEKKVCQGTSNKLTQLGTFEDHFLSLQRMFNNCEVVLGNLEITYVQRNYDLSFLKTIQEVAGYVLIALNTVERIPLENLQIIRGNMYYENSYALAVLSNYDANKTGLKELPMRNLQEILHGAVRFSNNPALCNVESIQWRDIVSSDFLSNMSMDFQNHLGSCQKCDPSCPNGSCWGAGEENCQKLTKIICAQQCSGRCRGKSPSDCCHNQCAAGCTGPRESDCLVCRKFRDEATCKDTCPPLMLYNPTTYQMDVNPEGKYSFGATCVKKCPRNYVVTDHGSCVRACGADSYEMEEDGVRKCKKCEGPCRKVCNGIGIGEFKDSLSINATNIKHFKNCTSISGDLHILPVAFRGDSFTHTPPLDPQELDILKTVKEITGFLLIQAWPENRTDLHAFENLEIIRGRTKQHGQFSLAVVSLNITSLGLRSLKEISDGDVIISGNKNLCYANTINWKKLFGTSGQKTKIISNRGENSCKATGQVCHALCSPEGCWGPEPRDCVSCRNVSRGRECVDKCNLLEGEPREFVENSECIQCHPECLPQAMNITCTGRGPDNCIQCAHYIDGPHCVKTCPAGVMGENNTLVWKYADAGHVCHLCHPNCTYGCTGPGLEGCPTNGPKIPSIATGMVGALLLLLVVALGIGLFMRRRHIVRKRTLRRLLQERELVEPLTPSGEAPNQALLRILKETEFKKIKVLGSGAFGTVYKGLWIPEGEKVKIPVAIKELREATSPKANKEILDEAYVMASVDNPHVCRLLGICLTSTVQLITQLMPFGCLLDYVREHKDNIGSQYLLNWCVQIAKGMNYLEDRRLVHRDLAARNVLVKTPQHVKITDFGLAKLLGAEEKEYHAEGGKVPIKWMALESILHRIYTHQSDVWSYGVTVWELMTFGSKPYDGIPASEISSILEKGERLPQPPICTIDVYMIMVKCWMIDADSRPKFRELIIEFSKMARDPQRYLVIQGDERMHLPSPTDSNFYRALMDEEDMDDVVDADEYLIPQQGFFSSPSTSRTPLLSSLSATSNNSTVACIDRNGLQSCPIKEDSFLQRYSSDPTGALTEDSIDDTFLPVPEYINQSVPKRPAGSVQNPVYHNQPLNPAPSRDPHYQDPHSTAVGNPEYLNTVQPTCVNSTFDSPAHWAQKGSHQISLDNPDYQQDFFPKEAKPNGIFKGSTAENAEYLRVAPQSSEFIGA

## CN1CCCN(c2ccc(Nc3ncc(Br)c(Nc4ccccc4NS(=O)(=O)C4CC4)n3)cc2)CC1
[1]
  IC50: 0.00476 µM
[2]
  IC50: 0.00061 µM
[3]
  inhibition: Active
[4]
  inhibition: Active
[5]
  viability at 0.01 µM: 77.3%
[6]
  Activity: 2.98%
[7]
  Activity: 69.42%
[8]
  Activity: 0.48%
[9]
  inhibition: Active
[10]
  inhibition: Active
[11]
  Activity: Active
[12]
  Activity: Active
[13]
  Activity: Non-Toxic
[14]
  inhibition in vivo at 50 mg/kg: 83.5%
[15]
  inhibition: Dose-Dependent Effect
[16]
  inhibition: Dose-Dependent Effect
[17]
  IC50: 4.35 µM
[18]
  IC50: 2.79 µM
[19]
  IC50: 5.41 µM
[20]
  Activity: Non-Toxic
[21]
  Activity: Non-Toxic
[22]
  Activity: Non-Toxic
[23]
  Activity: Active

Reference: ChEMBL document CHEMBL5579839, “Discovery of new cyclopropane sulfonamide derivatives as EGFR inhibitors to overcome C797S-mediated resistance and EGFR double mutation” (Eur J Med Chem, 2024)
